Test results reported in US5854010A, “Bioassay for detecting 2,3,7,8-tetrachlorodibenzo-para-dioxin and TCDD-like compounds and novel recombinant cell line useful therefor” (priority 1997, dated 1998).
Where two headings read alike, the source gives them in different places.

Assays:
[1] = system: mouse hepatoma Hepa1c1c7 cells (wild type); experiment: TCDD-inducible luciferase activity, transient transfection with pGudLuc1.0 (lacks DREs); assay type: cell-based
Experimental: (§1) In general, the expression vectors pGudLuc1.0 and pGudLuc1.1 were prepared as follows. A 1330-bp HindIII fragment or an 1810-bp HindIII fragment isolated from the plasmid, pMpap1.0 or pMpap1.1, respectively (see, El-Fouly et al., supra), was subcloned into the HindIII site immediately upstream of the luciferase gene in the plasmid pGL2-basic (purchased from Promega).
More specifically, the following cells were obtained from the source indicated. Wild-type and AhR-defective (BPRc1 and TAO, respectively) mouse hepatoma (Hepa1c1c7) cells (Hepa1), derived from a C57B1 mouse liver tumor, were obtained from J. P. Whitlock, Jr. (Stanford University). These cells were grown as previously described by Miller et al. in "Biochemical and Genetic Analysis of Variant Mouse Hepatoma Cells Defective in the Induction of Benzo(a)pyrene Metabolizing Enzyme Activity", J. Biol. Chem., Vol. 258, pp. 3523-3527 (1983). […]
(§2) Using the stabilized luciferase assay system (purchased from Promega), luciferase activity in an aliquot of the cleared lysed cell supernatant (20 μl) was determined by mixing it with 100 µl of luciferase assay reagent (purchased from Promega) and measuring the resulting luminescence in a Turner Luminometer or Dynatech ML3000 microplate luminometer (light output was integrated over 1 minute after a delay time of 30 seconds).
(§3) Using a microplate adaptation of the method reported by Bradford in "A Rapid Sensitive Method for the Quantitation of Microgram Quantities of Protein Utilizing the Principle of Protein-Dye Binding", Anal. Biochem., […], pp. 248-254 (1976), luciferase activity was standardized to the protein concentration of the supernatant (with bovine serum albumin as the protein standard). Because of instrument differences in luminescence measurement and data output, luciferase activity was determined as relative light units (RLU) per microgram of protein, which was converted to milligram of protein as reported in the Tables below.

[2] = system: guinea pig intestinal adenocarcinoma GPC16 cells; experiment: TCDD-inducible luciferase activity, transient transfection with pGudLuc1.1; assay type: cell-based
Experimental: as §1
(§4) More specifically, the following cells were obtained from the source indicated. Wild-type and AhR-defective (BPRc1 and TAO, respectively) mouse hepatoma (Hepa1c1c7) cells (Hepa1), derived from a C57B1 mouse liver tumor, were obtained from J. P. Whitlock, Jr. (Stanford University). These cells were grown as previously described by Miller et al. in "Biochemical and Genetic Analysis of Variant Mouse Hepatoma Cells Defective in the Induction of Benzo(a)pyrene Metabolizing Enzyme Activity", J. Biol. Chem., Vol. 258, pp. 3523-3527 (1983). Additionally, mouse hepatoma (MLE/BV) cells, derived from a spontaneously immortalized C3H/HeN mouse liver cell, were obtained from B. V. Madhukar (Indiana University School of Medicine, Indianapolis, Ind.) and were grown as described for the Hepa1 cells. Rat hepatoma (H4IIe) cells, guinea pig intestinal adenocarcinoma (GPC16) cells, hamster lung (AHL) cells, human hepatoma (HepG2) cells, human breast tumor (MCF7) cells, and human intestinal epithelial (LS180) cells were obtained from the American Type Culture Collection (Rockville, Md.). Until transfection, all of the cells were maintained according to their respective cell-type-specific culture protocols.
(§5) Transfection was accomplished as follows. Using polybrene as previously described by Helferich et al. in "Photooxidized Products of Tryptophan Can Act as Dioxin Agonists", Mol. Pharmacol., Vol. 40, pp. 674-678 (1991), plates of cells (approximately 80% confluent) were transiently transfected with the desired plasmid (15 μg). Then, the transfected cells were allowed to grow for 48 hours, followed by the addition of either DMSO (1 μl/ml) or TCDD (1 nM) solubilized in DMSO, which was followed by incubation for 24 hours. Next, the plates were transferred onto ice, and the media were removed, after which the plates were rinsed twice with cold PBS. Then, 200 μl of luciferase lysis buffer (purchased from Promega) was used to lyse the cells. The lysed cell samples were collected and transferred into a microfuge tube. Cell debris was pelleted by centrifugation, and the supernatants were collected. The supernatant samples were assayed for TCDD-inducible luciferase activity in the following manner.
as §2, §3

hamster lung AHL cells = experiment: as above; assay type: cell-based
Experimental: as §1, §4, §5, §2, §3

[3] = system: human breast tumor MCF7 cells; experiment: as above; assay type: cell-based
Experimental: as §1, §4, §5, §2, §3

[4] = system: human hepatoma HepG2 cells; experiment: as above; assay type: cell-based
Experimental: as §1, §4, §5, §2, §3

[5] = system: human intestinal epithelial LS180 cells; experiment: as above; assay type: cell-based
Experimental: as §1, §4, §5, §2, §3

[6] = system: mouse hepatoma Hepa1c1c7 cells (wild type); experiment: as above; assay type: cell-based
Experimental: as §1, §4, §5, §2, §3

rat hepatoma H4IIE cells = experiment: as above; assay type: cell-based
Experimental: as §1, §4, §5, §2, §3

H1L1.1 cells = experiment: TCDD-inducible luciferase activity, stably transfected clonal cell line; assay type: cell-based, mouse; conditions: 24 h
Experimental: as §2, §3
(§6) Cells from each of these five stable cell lines were cotransfected with the vectors, pGudLuc1.1 and pSV2neo (15 μg of each). Following a 24 hour incubation, the cotransfected cells were split 1 to 10 and replated into a selective medium containing the antibiotic, G418. After 2-3 weeks of growth, individual cell colonies were identified and isolated. Although numerous inducible cell clones were isolated, many contained high constitutive luciferase activity, possibly due to integration of the plasmid (or a truncated form of the plasmid) into a genomic site which allows the promoter to be continually active. […] The clones with the greatest ratio of inducible to constitutive luciferase activity were selected for further characterization.
(§7) More particularly, isolated clones were grown until confluent, and then incubated in the absence or presence of TCDD (1 nM solubilized in DMSO) for 24 hours. After the incubation, luciferase activity was determined as described above.

MLEL1.1c1 cells = experiment: as above; assay type: cell-based, mouse; conditions: 24 h
Experimental: as §2, §3, §6, §7

G16L1.1c8 cells = experiment: as above; assay type: cell-based, guinea pig; conditions: 24 h
Experimental: as §2
as §3, with “below. […]” for “below.”
as §7

HG2L1.1c3 cells = experiment: as above; assay type: cell-based, human; conditions: 24 h
Experimental: as §2
as §3, with “below. […]” for “below.”
as §7

[7] = system: Mouse T13 cells (recombinant Hepa1), alkaline phosphatase; conditions: Table 3 comparison, El-Fouly et al.; read-out: ED50 (the source's name); cited from earlier work
[8] = Mus musculus, TCDD 1 nM vs DMSO
[9] = TCDD 1 nM, mean ± SD of triplicate assays

Question: What does the source list for `Clc1cc2c(cc1Cl)Oc1cc(Cl)c(Cl)cc1O2` [TCDD, 2,3,7,8-tetrachlorodibenzo-para-dioxin]?
Answer: Luciferase activity, TCDD in DMSO ([1]; Luc1.0, TCDD 1 nM, 24 h, mean of triplicate transfections): 0.1 RLU/mg protein; fold induction at 0.001 µM ([1]; Mus musculus, Hepa-1c1c7, Luc1.0, TCDD 1 nM vs DMSO): 1; Induction of luciferase activity ([1]; pGudLuc1.0, TCDD 1 nM): failed to induce luciferase activity; fold induction ([2]; Cavia porcellus, Luc1.1, TCDD 1 nM vs DMSO): 7.6; Luciferase activity, TCDD in DMSO ([2]; Luc1.1, TCDD 1 nM, 24 h): 28.8 RLU/mg protein; Luciferase activity, TCDD in DMSO (hamster lung AHL cells; Luc1.1, TCDD 1 nM, 24 h): 174 RLU/mg protein; fold induction (hamster lung AHL cells; Mesocricetus auratus, Luc1.1, TCDD 1 nM vs DMSO): 5.8; fold induction ([3]; Homo sapiens, MCF7, Luc1.1, TCDD 1 nM vs DMSO): 33.4; Luciferase activity, TCDD in DMSO ([3]; Luc1.1, TCDD 1 nM, 24 h): 63.5 RLU/mg protein; fold induction ([4]; Homo sapiens, HepG2, Luc1.1, TCDD 1 nM vs DMSO): 66.3; Luciferase activity, TCDD in DMSO ([4]; Luc1.1, TCDD 1 nM, 24 h): 690 RLU/mg protein; fold induction ([5]; Homo sapiens, LS180, Luc1.1, TCDD 1 nM vs DMSO): 18.6; Luciferase activity, TCDD in DMSO ([5]; Luc1.1, TCDD 1 nM, 24 h): 26.0 RLU/mg protein; fold induction ([6]; Luc1.1, TCDD 1 nM vs DMSO, 0.001 µM): 60 Fold; Luciferase activity, TCDD in DMSO ([6]; Luc1.1, TCDD 1 nM, 24 h, mean of triplicate transfections): 12.1 RLU/mg protein; fold induction ([6]; Mus musculus, Hepa-1c1c7, Luc1.1, TCDD 1 nM vs DMSO, read-out: Fold induction): 60.5; Luciferase activity, TCDD in DMSO (rat hepatoma H4IIE cells; Luc1.1, TCDD 1 nM, 24 h): 34.2 RLU/mg protein; fold induction (rat hepatoma H4IIE cells; Rattus norvegicus, H4IIE, Luc1.1, TCDD 1 nM vs DMSO): 28.5; fold induction (H1L1.1 cells; [8]): 74; Luciferase activity, TCDD in DMSO (H1L1.1 cells; [9]): 5.92 ± 0.70 RLU/mg protein; fold induction (MLEL1.1c1 cells; [8]): 14; Luciferase activity, TCDD in DMSO (MLEL1.1c1 cells; [9]): 0.29 ± 0.05 RLU/mg protein; fold induction (G16L1.1c8 cells; Cavia porcellus, TCDD 1 nM vs DMSO): 25; Luciferase activity, TCDD in DMSO (G16L1.1c8 cells; [9]): 0.76 ± 0.03 RLU/mg protein; fold induction (HG2L1.1c3 cells; Homo sapiens, TCDD 1 nM vs DMSO): 29; Luciferase activity, TCDD in DMSO (HG2L1.1c3 cells; [9]): 25.04 ± 1.88 RLU/mg protein; EC50 [7]: 0.35 nM
